Measured values from ChEMBL document CHEMBL5370646, “Synthesis and Conformational Analysis of FR901464-Based RNA Splicing Modulators and Their Synergism in Drug-Resistant Cancers” (J Med Chem, 2023).

How the values were obtained:
HCT-116 [1] = test: Growth inhibition of human HCT-116 cells assessed as reduction in cell viability incubated for 72 hrs; format: functional
SW48 = test: Growth inhibition of human SW48 cells assessed as reduction in cell viability incubated for 72 hrs; format: functional
A549 = test: Growth inhibition of human A549 cells assessed as reduction in cell viability incubated for 72 hrs; format: functional
DMS-53 = test: Growth inhibition of human DMS-53 cells assessed as reduction in cell viability incubated for 72 hrs; format: functional
DMS-114 = test: Growth inhibition of human DMS-114 cells assessed as reduction in cell viability incubated for 72 hrs; format: functional
[2] = Growth inhibition of human CCD-841CoN cells assessed as reduction in cell viability incubated for 72 hrs; format: toxicity, cell-based
[3] = Growth inhibition of mouse FL83B cells assessed as reduction in cell viability incubated for 72 hrs; format: toxicity, cell-based
[4] = Metabolic stability in CD1 mouse plasma assessed as half life measured after 10 mins by LC-MS analysis; format: ADME, cell-free
HCT-116 [5] = test: Modulation of RNA splicing in human HCT-116 cells assessed as decrease in SF3B1 phosphorylation at thr313 residue by Western blot analysis; format: functional, cell-based; conditions: dose 3-100 nM
HCT-116 [6] = test: Modulation of RNA splicing in human HCT-116 cells assessed as decrease in MCL-1L expression by Western blot analysis; format: functional, cell-based; conditions: dose 3-100 nM
HCT-116 [7] = test: Modulation of RNA splicing in human HCT-116 cells assessed as decrease in MCL-1S expression by Western blot analysis; format: functional, cell-based; conditions: dose 3-100 nM
[8] = Metabolic stability in CD1 mouse plasma assessed as half life measured after 48 hrs by LC-MS analysis; format: ADME, cell-free
[9] = Metabolic stability in CD1 mouse plasma measured after 48 hrs by LC-MS analysis; format: ADME, cell-free
[10] = Synergistic antiproliferative activity against human Osimertinib-resistant HCC827AR cell assessed as combination index at 2.5 nM incubated for 72 hrs in presence of 0.25 uM osimertinib by WST-1 assay; format: functional
[11] = Synergistic antiproliferative activity against human Osimertinib-resistant HCC827AR cell assessed as combination index at 2.5 nM incubated for 72 hrs in presence of 0.50 uM osimertinib by WST-1 assay; format: functional
[12] = Synergistic antiproliferative activity against human Osimertinib-resistant HCC827AR cell assessed as combination index at 2.5 nM incubated for 72 hrs in presence of 1 uM osimertinib by WST-1 assay; format: functional
[13] = Synergistic antiproliferative activity against human Osimertinib-resistant HCC827AR cell assessed as combination index at 2.5 nM incubated for 72 hrs in presence of 2 uM osimertinib by WST-1 assay; format: functional
[14] = Synergistic antiproliferative activity against human Osimertinib-resistant HCC827AR cell assessed as combination index at 2.5 nM incubated for 72 hrs in presence of 4 uM osimertinib by WST-1 assay; format: functional

Row | Compound | GI50 (HCT-116 [1]) | GI50 (SW48) | GI50 (A549) | GI50 (DMS-53) | GI50 (DMS-114) | GI50 at 72 h [2] | GI50 at 72 h [3] | half-life [4] | Activity (HCT-116 [5]) | Activity (HCT-116 [6]) | Activity (HCT-116 [7]) | half-life [8] | Stability [9] | CI [10] | CI [11] | CI [12] | CI [13] | CI [14]
1 | CC(=O)O[C@@H](C)/C=C\C(=O)N[C@@H]1C[C@H](C)[C@H](C/C=C(C)/C=C/[C@H]2OC(C)(C)C[C@@]3(CO3)[C@@H]2O)O[C@@H]1C | 0.7 nM | 0.9 nM | 2.7 nM | 0.5 nM | 0.4 nM | 2 nM | 0.9 nM | 1 min | – | – | – | – | – | – | – | – | – | –
2 | COCO[C@@H](C)/C=C\C(=O)N(C)[C@@H]1C[C@H](C)[C@H](C/C=C(C)/C=C/[C@H]2OC(C)(C)C[C@@]3(CO3)[C@@H]2O)O[C@@H]1C | 4100 nM | 4600 nM | 7500 nM | 6000 nM | 4900 nM | – | – | – | – | – | – | – | – | – | – | – | – | –
3 | COCO[C@@H](C)/C=C\C(=O)N[C@@H]1CC[C@H](C/C=C(C)/C=C/[C@H]2OC(C)(C)C[C@@]3(CO3)[C@@H]2O)O[C@@H]1C | 10.5 nM | 10.7 nM | 8.6 nM | 14.9 nM | 10.2 nM | 63.2 nM | 35.7 nM | – | Dose-Dependent Effect | Dose-Dependent Effect | Dose-Dependent Effect | 8 h | Stable | – | – | – | – | –
4 | COCO[C@@H](C)/C=C\C(=O)N(C)[C@@H]1CC[C@H](C/C=C(C)/C=C/[C@H]2OC(C)(C)C[C@@]3(CO3)[C@@H]2O)O[C@@H]1C | 16000 nM | 16000 nM | 34000 nM | 23000 nM | 8700 nM | – | – | – | – | – | – | – | – | – | – | – | – | –
5 | Cc1c(-c2c(-c3ccc(F)o3)sc3ncnc(O[C@H](Cc4ccccc4OCc4ccnn4CC(F)(F)F)C(=O)O)c23)ccc(OCCN2CCN(C)CC2)c1Cl | – | – | – | – | – | – | – | – | – | – | – | – | – | 0.38 | 0.46 | 0.55 | 0.47 | 0.42
